Columns and labels:
[1] = Interfacial tension between aqueous solutions and perfluorodecalin; format: physicochemical; conditions: solution in water vs perfluorodécaline, 20°C
Method: (§1) Pour illustrer le caractère fortement tensioactif des dérivés fluorés de l'invention, on a effectué des mesures à 20°C de la tension superficielle de solutions dans l'eau de ces dérivés, ainsi que de la tension interfaciale entre ces solutions et un composé perfluoré constitué par la perfluorodécaline.
(§2) On précise que dans les conditions de ces mesures: • - la tension superficielle de l'eau à 20°C est de 73,0± 0,2mN.m-^1, et • - la tension interfaciale entre l'eau et la perfluorodécaline à 20°C est de 56,0 ± 0,2 mN.m-^1.

globules rouges humains = test: Haemolysis test on human red blood cells; format: cell-based
[2] = tested on: cultures cellulaires lymphoblastoïdes de la souche Namalva; test: Biocompatibility on lymphoblastoid cell cultures (growth, multiplication, subculturing); format: cell-based
Source text: Pour tester la biocompatibilité des dérivés de l'invention, on a vérifié que ces dérivés n'avaient pas d'effet sur la croissance, la multiplication et le repiquage de cultures cellulaires lymphoblastoïdes de la souche Namalva.

[3] = Surface tension of aqueous solutions of the fluorinated derivatives; format: physicochemical; conditions: solution in water, 20°C
Method: as §1, §2

souris = test: Acute toxicity after intravenous administration to mice; format: in vivo
Method: Enfin, on a vérifié que les dérivés de l'invention ne présentaient pas de toxicité aigüe. Ainsi, l'administration intraveineuse à des souris, de 20 ml/kg des solutions à : • - 100 mg/I de (F-butyl-2')éthylbétaïne (ex. 4), • - 100 mg/l de (F-hexyl-2')éthylbétaïne (ex. 5), • - 100 mg/I de (F-octyl-2')éthylbétaïne (ex. 6), et • - 500 mg/I de (F-octyl-3"propylcarbamoyl)-4'butylbétaïne (ex. 14), dans de l'eau à 9 pour mille de NaCl, a été bien tolérée.

[4] = solution 500 mg/l in water with 9 per mille NaCl
[5] = solution 5 g/l in water with 9 per mille NaCl
[6] = solution 1 g/l in water with 9 per mille NaCl
[7] = 20 ml/kg of a 100 mg/l solution in water with 9 per mille NaCl

Row | SMILES | Tension interfaciale/ F-décaline ([1]; concentration 0,01 g/l) | Tension interfaciale/ F-décaline ([1]; concentration 0,1 g/l) | hémolyse des globules rouges humains (globules rouges humains; [4]) | croissance, multiplication et repiquage des cultures [2, 4] | Tension superficielle ([3]; concentration 0,01 g/l) | Tension superficielle ([3]; concentration 0,1 g/l) | toxicité aigüe (tolérance) (souris; 20 ml/kg of a 500 mg/l solution in water with 9 per mille NaCl) | Tension interfaciale/ F-décaline ([1]; concentration 1 g/l) | hémolyse des globules rouges humains (globules rouges humains; [5]) | croissance, multiplication et repiquage des cultures [2, 6] | Tension superficielle ([3]; concentration 1 g/l) | toxicité aigüe (tolérance) (souris; [7]) | hémolyse des globules rouges humains (globules rouges humains; [6])
1 | C[N+](C)(C)C(CCCCNC(=O)CCC(F)(F)C(F)(F)C(F)(F)C(F)(F)C(F)(F)C(F)(F)C(F)(F)C(F)(F)F)C(=O)[O-] (centres unmarked) [(triméthylammonio)-2 [(F-octyl)-3' propanoylamino] -6 hexanoate] | 5,2 mN.m^-1 | 3,6 mN.m^-1 | ne provoquent pas l'hémolyse | ne perturbent pas la croissance, la multiplication et le repiquage de ces cultures | 22,8 mN.m^-1 | 19,7 mN.m^-1 | bien tolérée |  |  |  |  |  | 
2 | C[N+](C)(C)C(CCC(F)(F)C(F)(F)C(F)(F)C(F)(F)F)C(=O)[O-] (centres unmarked) [(F-butyl-2')éthyl bétaïne de l'Ex. 4, F-(butyl-2')éthyl bétaïne] |  | 48,0 mN.m^-1 |  |  |  | 68,4 mN.m^-1 |  | 34,5 mN.m^-1 | ne provoquent pas l'hémolyse | ne perturbent pas la croissance, la multiplication et le repiquage de ces cultures | 49,3 mN.m^-1 | bien tolérée | 
3 | O=C(O)CNC(=O)CCC(F)(F)C(F)(F)C(F)(F)C(F)(F)C(F)(F)C(F)(F)C(F)(F)C(F)(F)F [(F-octyl-3' propylcarbamoyl) éthanoate de sodium] | 41,3 mN.m^-1 | 25,2 mN.m^-1 |  |  | 43,2 mN.m^-1 | 38,8 mN.m^-1 |  | 7,1 mN.m^-1 |  |  | 21,6 mN.m^-1 |  | 
4 | C[N+](C)(C)C(CCC(F)(F)C(F)(F)C(F)(F)C(F)(F)C(F)(F)C(F)(F)C(F)(F)C(F)(F)F)C(=O)[O-] (centres unmarked) [(F-octyl-2')éthyl bétaïne de l'Ex. 6, (F-octyl-2')éthyl bétaïne] | 7,5 mN.m^-1 | 3,4 mN.m^-1 |  |  | 25,6 mN.m^-1 | 19,9 mN.m^-1 |  | 2,8 mN.m^-1 |  | ne perturbent pas la croissance, la multiplication et le repiquage de ces cultures | 19,1 mN.m^-1 | bien tolérée | ne provoquent pas l'hémolyse
5 | C[C@H](CCC(=O)NC(CCC(F)(F)C(F)(F)C(F)(F)C(F)(F)C(F)(F)C(F)(F)F)C(=O)O)[C@H]1CC[C@H]2[C@@H]3[C@H](O)C[C@@H]4C[C@H](O)CC[C@]4(C)[C@H]3C[C@H](O)[C@]12C (some centres unmarked) |  |  |  |  |  |  |  | 4,7 mN.m^-1 |  |  | 28,5 mN.m^-1 |  | 
6 | C[N+](C)(C)C(CCC(F)(F)C(F)(F)C(F)(F)C(F)(F)C(F)(F)C(F)(F)F)C(=O)[O-] (centres unmarked) [(F-hexyl-2')éthyl bétaïne de l'Ex. 5, (F-hexyl-2')éthyl bétaïne] |  | 22,4 mN.m^-1 |  |  |  | 39,3 mN.m^-1 |  | 3,1 mN.m^-1 | ne provoquent pas l'hémolyse | ne perturbent pas la croissance, la multiplication et le repiquage de ces cultures | 20,0 mN.m^-1 | bien tolérée | 

— patent publication EP0311473A1, “Fluorinated derivate of amino acids, useful as tensioactive or cotensioactive agents, and preparations for biomedical use containing these derivatives” (AP[…] […] TE[…] ATTA, priority 1987, dated 1989)
